Patent US20260335323A1, “CHIMERIC MOLECULE” (UCL Business Ltd, priority 2023, published 2026)

Experiments:
Type in all cases: cell-based, human
A549 cells [1] = test: Cell viability assay (CellTiter Glo), A549; details: A549, increasing concentrations
Method: (§1) A549 and H1299 cells were seeded in OptiPlate-384 well plates and treated with increasing concentrations of (+)-JQ1 or NZ-147 from 0 μM to 10 µM in Example 8 and with increasing concentrations of NZ-175 from 0 µM to 10 µM in Example 9. Cells were treated for 120 h before using the luciferase based CellTiter Glo assay (Promega) to measure cell viability.
(§2) Cell viability assay was performed in A549 and H1299 cells, which were treated with different concentrations of (+)-JQ1 or NZ-147 at 100 nM for 72 hours (FIG. 10B).
(§3) Cell viability assay was performed in A549 and H1299 cells, which were treated with different concentrations of NZ-147 at 100 nM for 72 hours (FIG. 16B).

H1299 cells [2] = test: Cell viability assay (CellTiter Glo), H1299; details: H1299, increasing concentrations
Method: as §1, §2, §3

c-MYC controlled genes = test: RT-qPCR of c-MYC controlled genes in CAL51 cells; details: 100 nM, 72 hours
Method: FIG. 11. RT-qPCR quantification of expression of c-MYC controlled genes in CAL51 triple negative breast cancer cell line treated with DMSO, 100 nM (+)-JQ1 or 100 nM NZ-147 for 72 hours. […] MDM2 (A) and CCNE (B) are controlled by cMYC in oncogenic settings, PAICS (C) is a putative target of c-MYC, and eIF4E (D) is a known target of cMYC. n=3, *p<0.05, ** p<0.01, *** p<0.001.
RNA was extracted with the Qiagen RNeasy Mini kit following manufacturers protocol. RT-qPCR SYBR assay was carried out with Mesa Blue following manufacturers instructions, 80 ng RNA per well, experimental triplicates, BioRad CTX Connect qPCR machine. RNA levels were normalized to GAPDH. Experiments were done in biological triplicate. The primers used were as follows:
The levels of c-MYC controlled genes (determined using RT-qPCR) in CAL51 triple negative breast cancer cell line after treatment with DMSO, 100 nM (+)-JQ1 or 100 nM NZ-147 for 72 hours is shown in FIG. 11. In particular MDM2 (FIG. 11A) and CCNE (FIG. 11B) are controlled by cMYC in oncogenic settings, PAICS (FIG. 11C) is a putative target of c-MYC, and elF4E (FIG. 11D) is a known target of c-MYC.

phospho-CHK1 (S345) = test: Western blot, phospho-CHK1 in RPE1-hTERT-cMYC-ER cells (replication stress); details: 72 h; NZ-175 at 100 nM with 4-OHT
Method: (§4) FIG. 15. NZ-175 rescues oncogenic c-MYC induced replication stress (100 nM, 72 h) (A) Western blot of RPE1-hTERT-cMYC-ER treated with 4-OHT and/or NZ-175 at 100 nM for 72 hours. 4-OHT treatment simulates oncogenic c-MYC-induced replication stress, observed by upregulation of phospho-CHK1 (S345), pRPA (S4/S8) and γH2AX. […] Quantification of blot is shown for pCHK1 […] (B), pRPA (S4/S8) (C), and YH2AX (D). n=3, mean±SEM, *p<0.05, ** p<0.01, *** p<0.001.
(§5) Cells were homogenised in protein lysis buffer consisting of 0.1 M Tris pH 8.0, 0.1 M NaCl, 5% glycerol, IGEPAL® CA-630 (#18896. Sigma-Aldrich) and 5 mM EDTA, 0.1 M N-ethyl maleimide (ThermoFisher, #23030) and protease inhibitor (Cell Signalling Technologies, #5871). Protein concentrations were determined using the BCA assay to ensure equal loading. […] The membranes were immunoblotted with primary antibodies, overnight at 4° C. […]
(§6) Membranes were then incubated with horseradish peroxidase (HRP)-conjugated secondary antibodies (Rabbit #7074 and Mouse #7076) purchased from Cell Signalling Technologies for 1 hour and the HRP signal was detected using EZ-ECL Enhanced Chemiluminescence Detection Kit for HRP (#20-500-500, Sartorius), and imaged with an Alliance Q9 Advanced (UVITec). […]
(§7) To see if NZ-175 could rescue this phenotype, RPE1-hTERT-cMYC-ER cells treated with 4-OHT and/or 100 nM NZ-175 for 72 h were analysed by Western blotting (FIG. 15A). […]

pRPA (S4/S8) = test: Western blot, pRPA (S4/S8) in RPE1-hTERT-cMYC-ER cells (replication stress); details: 72 h; NZ-175 at 100 nM with 4-OHT
Method: as §4, §5, §6, §7

γH2AX = test: Western blot, γH2AX in RPE1-hTERT-cMYC-ER cells (replication stress); details: 72 h; NZ-175 at 100 nM with 4-OHT
Method: as §4, §5, §6, §7

c-MYC [3] = test: c-MYC immunofluorescence in hTERT-cMYC-ER expressing RPE1 cells; details: 100 nM, 72 hours, 4-OHT and/or compound
Method: FIG. 9. (A) Schematic representation of hTERT-cMYC-ER expressing RPE1 cells. Treatment with 4-hydroxytamoxifen (4-OHT) translocates c-MYC-ER from the cytoplasm into the nucleus, simulating oncogenic c-MYC. (B) Immunofluorescence images of hTERT-cMYC-ER expressing RPE1 cells treated with DMSO, (+)-JQ1 or NZ-147 at 100 nM for 72 hours, each with or without 4-OHT.
RPE1-hTERT-c-MYC-ER cells were seeded in a 384 well PerkinElmer CellCarrier Ultra plate. In Example 8, cells were treated for 72 hours with DMSO, (+)-JQ1±4-OHT, or, NZ-147±4-OHT. In Example 9, cells were treated for 72 hours with 4-OHT, NZ-175, both, or neither. Thereafter, in both Examples 8 and 9, cells were fixed with 4% paraformaldehyde (PFA) in phosphate buffered saline (PBS) and blocked with 10% FBS and 0.1% Triton in PBS. Plates were incubated at 4° C. overnight, with 1:500 rabbit anti-c-MYC (D84C12) rabbit monoclonal antibody (#5605, Cell Signalling Technologies). The following day, plates were incubated with 1:1000 goat anti-rabbit Alexa 488 (ThermoFisher Scientific, #A-11008) and 1.62 μM Hoechst 33342 at room temperature for 1 hour before imaging. Excitation and emission spectra for each channel are as follows: Hoechst 33342=405/435-480 nm, Alexa 488=488/500-550 nm. Images were acquired at 40× and 63× magnification with water immersion lens.

A549 cells [4] = test: Colony formation assay, A549; details: A549, 100 nM, 72 hours
Method: (§8) A549 and H1299 cells were seeded in 12 well plates at approximately 100 cells per well. In Example 8, wells were treated with DMSO, (+)-JQ1 or NZ-147. In Example 9, cells were treated with DMSO or NZ-175. Colonies were allowed to form over 120 h. Cells were fixed and stained with crystal violet staining solution, prepared in 70% ethanol.
(§9) A colony formation assay was performed in A549 and H1299 cells, which were treated with DMSO, (+)-JQ1 or NZ-147 at 100 nM for 72 hours and stained with crystal violet (FIG. 10A).
(§10) A colony formation assay was performed in A549 and H1299 cells, which were treated with DMSO or NZ-175 at 100 nM for 72 hours and stained with crystal violet (FIG. 16A).

H1299 cells [5] = test: Colony formation assay, H1299; details: H1299, 100 nM, 72 hours
Method: as §8, §9, §10

c-MYC [6] = test: Western blot, c-MYC in RPE1-hTERT-cMYC-ER cells; details: 100 nM, 72 h, 4-OHT and/or compound
Method: (§11) FIG. 12. c-MYC and MAX degradation enabled by NZ-175. (A) Schematic representation of hTERT-cMYC-ER expressing RPE1 cells. Treatment with 4-hydroxytamoxifen (4-OHT) translocates c-MYC-ER from the cytoplasm into the nucleus, simulating oncogenic c-MYC. (B) Western blot of RPE1-hTERT-cMYC-ER treated with 4-OHT and/or 100 nM NZ-175 for 72 hours. Quantification of c-MYC-ER (C), c-MYC (D) and MAX (E).
as §5, §6
(§12) RPE1-hTERT-cMYC-ER cells were treated with 4-OHT and/or 100 nM NZ-175 for 72 h and analysed by Western blotting (FIG. 12A). The levels of c-MYC-ER (FIG. 12B), c-MYC (FIG. 12C) and MAX (FIG. 12D) were quantified.

MAX = test: Western blot, MAX in RPE1-hTERT-cMYC-ER cells; details: 100 nM, 72 h, 4-OHT and/or compound
Method: as §11, §5, §6, §12

p-Ub (S65) [7] = test: Western blot, p-Ub (S65) in WT fibroblasts; details: 10 μM FCCP, 2 h
Method: (§13) FIG. 7. ULKTACs restore mitophagic activity in PINK-null PD patient fibroblasts (A) Western blot of patient derived fibroblasts, healthy control vs. PINK null, treated with […] NZ-65 or NZ-66 for 18 h or 10 μM FCCP for 2 h and probed for total Ub, pUb(S65), Mfn2 and b-Actin with quantification for the changes in the pUB (S65): Total Ub ratio shown in (B) and Mfn2 (C), respectively normalised to b-Actin. (D) Representative immunofluorescence of primary human fibroblasts isolated from wild type controls and PINK-null Parkinson's disease patients, treated with 10 µM FCCP, 1 μM NZ-65 or 1 μM NZ-66 and immunostained for TOM20 and ULK1; counterstained with Alexa 488 and Alexa 568 antibodies. Nuclei stained with Hoechst 33342. The quantification of these immunofluorescence experiments is shown in (E). Data shown are mean±SEM, n=3, *** p<0.001, two-way ANOVA with Tukey's multiple comparisons test.
as §5

p-Ub (S65) [8] = test: Western blot, p-Ub (S65) in PINK-null PD patient fibroblasts
Method: as §13, §5

Compound: Cc1sc2c(c1C)C(c1ccc(Cl)cc1)=N[C@@H](CC(=O)OC(C)(C)C)c1nnc(C)n1-2 [(+)-JQ1, reference compound]
- percentage of live cells (A549 cells [1]): dose-dependent decrease in the percentage of live cells
- percentage of live cells (H1299 cells [2]): dose-dependent decrease in the percentage of live cells
- expression of c-MYC controlled genes (MDM2, CCNE, PAICS, eIF4E) (c-MYC controlled genes): reduces the expression of c-MYC controlled genes

Compound: 4-hydroxytamoxifen [4-OHT, reference compound]
- phospho-CHK1 (S345), replication stress (phospho-CHK1 (S345)): upregulation
- pRPA (S4/S8), replication stress (pRPA (S4/S8)): upregulation
- γH2AX, replication stress (γH2AX): upregulation

Compound: C/C=C/C(=O)NCc1ccc(C(=O)Nc2ccccc2Oc2ccc(OCC(=O)NCCOCCOCCOCCn3cc(COc4ccc([C@@H](NC(=O)Nc5cc(C(F)(F)F)cc(C(F)(F)F)c5)C(=O)Nc5ccc(F)cc5F)cc4)nn3)cc2)cc1 [NZ-175, (R)-4-(crotonylamidomethyl)-N-(2-(4-((14-(4-((4-(1-(3-(3,5-bis(trifluoromethyl)phenyl)ureido)-2-((2,4-difluorophenyl)amino)-2-oxoethyl)phenoxy)methyl)-1H-1,2,3-triazol-1-yl)-2-oxo-6,9,12-trioxa-3-azatetradecyl)oxy)phenoxy)phenyl) benzamide]
- c-MYC degradation (time-course immunofluorescence) (c-MYC [3]): c-MYC degradation
- colony formation (A549 cells [4]): Fewer colonies formed
- colony formation (H1299 cells [5]): Fewer colonies formed
- degradation of c-MYC (c-MYC [6]): initiates degradation of c-MYC
- degradation of MAX (MAX): proximal degradation of MAX
- phospho-CHK1 (S345), replication stress (phospho-CHK1 (S345)): rescues this phenotype
- pRPA (S4/S8), replication stress (pRPA (S4/S8)): rescues this phenotype
- γH2AX, replication stress (γH2AX): rescues this phenotype

Compound: N#CC(C#N)=NNc1ccc(OC(F)(F)F)cc1 [FCCP]
- p-Ub (S65) levels (p-Ub (S65) [7]): substantial increase in p-Ub (S65) levels
- p-Ub (S65) levels (p-Ub (S65) [8]): does not occur in the PINK-null cells
